According to the OligoGym collection:
HELM strings list units from the 5' end as sugar, base in round brackets, then linkage (d deoxyribose, r ribose, m 2'-O-methyl, p phosphodiester). Strings are as the collection lists them, not checked against the first reports. ss, as = sense and antisense strand

settings: siRNA
Also: test system not given here.

Point of comparison: “RNA1{m(G)p.r(U)p.m(A)p.r(U)p.m(C)p.r(C)p.m(G)p.r(A)p.m(A)p.r(G)p.m(A)p.r(C)p.m(G)p.r(A)p.m(A)p.r(G)p.m(C)p.r(U)p.m(A)p.r(T)p.r(T)}|RNA2{r(U)p.m(A)p.r(G)p.r(C)p.r(U)p.r(U)p.r(C)p.r(G)p.r(U)p.r(C)p.r(U)p.r(U)p.r(C)p.r(G)p.r(G)p.m(A)p.r(U)p.m(A)p.r(C)p.r(T)p.r(T)}$$$RNA1{StrandType:ss}|RNA2{StrandType:as}$”, target mRNA knockdown 30%. Against it:
- RNA1{m(G)p.r(G)p.m(A)p.r(A)p.m(G)p.r(U)p.m(C)p.r(C)p.m(A)p.r(C)p.m(C)p.r(U)p.m(U)p.r(C)p.m(U)p.r(C)p.m(C)p.r(G)p.m(A)p.r(T)p.r(T)}|RNA2{m(U)p.r(C)p.r(G)p.r(G)p.r(A)p.r(G)p.r(A)p.r(A)p.r(G)p.r(G)p.m(U)p.r(G)p.r(G)p.r(A)p.r(C)p.m(U)p.m(U)p.r(C)p.r(C)p.r(T)p.r(T)}$$$RNA1{StrandType:ss}|RNA2{StrandType:as}$ — lower, 27%
- RNA1{m(G)p.r(G)p.m(A)p.r(G)p.m(C)p.r(A)p.m(C)p.r(G)p.m(C)p.r(U)p.m(U)p.r(A)p.m(C)p.r(U)p.m(A)p.r(C)p.m(C)p.r(U)p.m(U)p.r(T)p.r(T)}|RNA2{r(A)p.r(A)p.r(G)p.r(G)p.r(U)p.r(A)p.r(G)p.r(U)p.r(A)p.r(A)p.r(G)p.r(C)p.r(G)p.r(U)p.r(G)p.r(C)p.r(U)p.r(C)p.r(C)p.r(T)p.r(T)}$$$RNA1{StrandType:ss}|RNA2{StrandType:as}$ — higher, 51%
- RNA1{m(G)p.r(G)p.m(A)p.r(G)p.m(C)p.r(U)p.m(A)p.r(G)p.m(A)p.r(C)p.m(G)p.r(G)p.m(G)p.r(U)p.m(A)p.r(C)p.m(G)p.r(A)p.r(G)p.r(T)p.r(T)}|RNA2{r(C)p.r(U)p.r(C)p.r(G)p.r(U)p.r(A)p.r(C)p.r(C)p.r(C)p.r(G)p.r(U)p.r(C)p.r(U)p.r(A)p.r(G)p.r(C)p.r(U)p.r(C)p.r(C)p.r(T)p.r(T)}$$$RNA1{StrandType:ss}|RNA2{StrandType:as}$ — higher, 75%
- RNA1{m(G)p.r(G)p.m(C)p.r(C)p.m(A)p.r(A)p.m(A)p.r(G)p.m(U)p.r(A)p.m(A)p.r(U)p.m(C)p.r(G)p.m(U)p.r(G)p.m(G)p.r(U)p.m(U)p.r(T)p.r(T)}|RNA2{r(A)p.r(A)p.r(C)p.r(C)p.r(A)p.r(C)p.r(G)p.r(A)p.r(U)p.r(U)p.r(A)p.r(C)p.r(U)p.r(U)p.r(U)p.r(G)p.r(G)p.r(C)p.r(C)p.r(T)p.r(T)}$$$RNA1{StrandType:ss}|RNA2{StrandType:as}$ — higher, 37%
- RNA1{m(G)p.r(G)p.m(C)p.r(C)p.m(U)p.r(U)p.m(U)p.r(C)p.m(U)p.r(C)p.m(U)p.r(C)p.m(U)p.r(A)p.m(G)p.r(A)p.m(U)p.r(A)p.m(U)p.r(T)p.r(T)}|RNA2{r(A)p.r(U)p.r(A)p.r(U)p.r(C)p.r(U)p.r(A)p.r(G)p.r(A)p.r(G)p.r(A)p.r(G)p.r(A)p.r(A)p.r(A)p.m(G)p.r(G)p.r(C)p.r(C)p.r(T)p.r(T)}$$$RNA1{StrandType:ss}|RNA2{StrandType:as}$ — higher, 80%
- RNA1{m(G)p.r(G)p.m(C)p.r(G)p.m(G)p.r(G)p.m(C)p.r(U)p.m(C)p.r(U)p.m(U)p.r(U)p.m(C)p.r(C)p.m(U)p.r(A)p.m(U)p.r(U)p.m(C)p.r(T)p.r(T)}|RNA2{r(G)p.r(A)p.r(A)p.r(U)p.r(A)p.r(G)p.r(G)p.r(A)p.r(A)p.r(A)p.r(G)p.r(A)p.r(G)p.r(C)p.r(C)p.r(C)p.r(G)p.r(C)p.r(C)p.r(T)p.r(T)}$$$RNA1{StrandType:ss}|RNA2{StrandType:as}$ — higher, 51%
- RNA1{m(G)p.r(G)p.m(G)p.r(A)p.m(G)p.r(G)p.m(U)p.r(C)p.m(U)p.r(U)p.m(A)p.r(G)p.m(A)p.r(A)p.m(A)p.r(A)p.m(C)p.r(A)p.m(C)p.r(T)p.r(T)}|RNA2{r(G)p.r(U)p.r(G)p.r(U)p.r(U)p.r(U)p.r(U)p.r(C)p.r(U)p.r(A)p.r(A)p.r(G)p.r(A)p.r(C)p.r(C)p.r(U)p.r(C)p.r(C)p.r(C)p.r(T)p.r(T)}$$$RNA1{StrandType:ss}|RNA2{StrandType:as}$ — lower, 17%
- RNA1{m(G)p.r(G)p.m(G)p.r(G)p.m(C)p.r(U)p.m(C)p.r(U)p.m(U)p.r(C)p.m(U)p.r(A)p.m(C)p.r(A)p.m(U)p.r(U)p.m(C)p.r(C)p.m(C)p.r(T)p.r(T)}|RNA2{r(G)p.r(G)p.r(G)p.r(A)p.r(A)p.r(U)p.r(G)p.r(U)p.r(A)p.r(G)p.r(A)p.r(A)p.r(G)p.r(A)p.r(G)p.r(C)p.r(C)p.r(C)p.r(C)p.r(T)p.r(T)}$$$RNA1{StrandType:ss}|RNA2{StrandType:as}$ — higher, 51%
- RNA1{m(G)p.r(G)p.m(U)p.r(A)p.m(G)p.r(A)p.m(A)p.r(U)p.m(A)p.r(G)p.m(G)p.r(U)p.m(U)p.r(U)p.m(U)p.r(C)p.m(C)p.r(C)p.m(C)p.r(T)p.r(T)}|RNA2{r(G)p.r(G)p.r(G)p.r(G)p.r(A)p.r(A)p.r(A)p.r(A)p.r(C)p.r(C)p.r(U)p.r(A)p.r(U)p.r(U)p.r(C)p.r(U)p.r(A)p.r(C)p.r(C)p.r(T)p.r(T)}$$$RNA1{StrandType:ss}|RNA2{StrandType:as}$ — lower, 11%
- RNA1{m(G)p.r(G)p.m(U)p.r(A)p.m(G)p.r(G)p.m(G)p.r(U)p.m(U)p.r(G)p.m(A)p.r(A)p.m(G)p.r(A)p.m(G)p.r(A)p.m(C)p.r(U)p.r(U)p.r(T)p.r(T)}|RNA2{r(A)p.r(A)p.r(G)p.r(U)p.r(C)p.r(U)p.r(C)p.r(U)p.r(U)p.r(C)p.r(A)p.r(A)p.m(C)p.r(C)p.r(C)p.r(U)p.m(A)p.r(C)p.r(C)p.r(T)p.r(T)}$$$RNA1{StrandType:ss}|RNA2{StrandType:as}$ — higher, 58%
- RNA1{m(G)p.r(U)p.m(A)p.r(C)p.m(U)p.r(C)p.m(U)p.r(G)p.m(A)p.r(U)p.m(G)p.r(A)p.m(G)p.r(G)p.m(A)p.r(A)p.m(G)p.r(A)p.m(G)p.r(T)p.r(T)}|RNA2{r(C)p.r(U)p.r(C)p.r(U)p.r(U)p.r(C)p.r(C)p.r(U)p.r(C)p.r(A)p.r(U)p.r(C)p.r(A)p.r(G)p.r(A)p.r(G)p.r(U)p.r(A)p.r(C)p.r(T)p.r(T)}$$$RNA1{StrandType:ss}|RNA2{StrandType:as}$ — lower, 18%
- RNA1{m(G)p.r(U)p.m(C)p.r(U)p.m(A)p.r(U)p.m(G)p.r(C)p.m(C)p.r(A)p.m(A)p.r(G)p.m(A)p.r(A)p.m(G)p.r(G)p.m(G)p.r(A)p.m(G)p.r(T)p.r(T)}|RNA2{r(C)p.r(U)p.r(C)p.r(C)p.r(C)p.r(U)p.r(U)p.r(C)p.r(U)p.r(U)p.r(G)p.r(G)p.r(C)p.r(A)p.r(U)p.r(A)p.r(G)p.r(A)p.r(C)p.r(T)p.r(T)}$$$RNA1{StrandType:ss}|RNA2{StrandType:as}$ — lower, 24%
- RNA1{m(U)p.r(A)p.m(A)p.r(A)p.m(C)p.r(U)p.m(U)p.r(U)p.m(G)p.r(G)p.m(G)p.r(G)p.m(A)p.r(A)p.m(G)p.r(G)p.m(G)p.r(A)p.m(G)p.r(T)p.r(T)}|RNA2{r(C)p.r(U)p.r(C)p.r(C)p.r(C)p.r(U)p.r(U)p.r(C)p.r(C)p.r(C)p.r(C)p.r(A)p.r(A)p.r(A)p.r(G)p.r(U)p.r(U)p.r(U)p.r(A)p.r(T)p.r(T)}$$$RNA1{StrandType:ss}|RNA2{StrandType:as}$ — higher, 34%
- RNA1{m(U)p.r(A)p.m(A)p.r(A)p.m(G)p.r(C)p.m(U)p.r(G)p.m(G)p.r(A)p.m(A)p.r(A)p.m(G)p.r(G)p.m(G)p.r(A)p.m(C)p.r(G)p.m(G)p.r(T)p.r(T)}|RNA2{r(C)p.r(C)p.r(G)p.r(U)p.r(C)p.r(C)p.r(C)p.r(U)p.r(U)p.r(U)p.r(C)p.r(C)p.m(A)p.r(G)p.r(C)p.r(U)p.r(U)p.r(U)p.m(A)p.r(T)p.r(T)}$$$RNA1{StrandType:ss}|RNA2{StrandType:as}$ — lower, 29%
- RNA1{m(U)p.r(A)p.m(G)p.r(C)p.m(C)p.r(A)p.m(G)p.r(A)p.m(G)p.r(C)p.m(C)p.r(A)p.m(A)p.r(A)p.r(G)p.m(A)p.r(A)p.r(G)p.r(C)p.r(T)p.r(T)}|RNA2{r(G)p.r(C)p.m(U)p.m(U)p.r(C)p.m(U)p.m(U)p.m(U)p.r(G)p.r(G)p.r(C)p.m(U)p.r(C)p.m(U)p.r(G)p.r(G)p.r(C)p.m(U)p.r(A)p.r(T)p.r(T)}$$$RNA1{StrandType:ss}|RNA2{StrandType:as}$ — higher, 75%
- RNA1{m(U)p.r(A)p.r(A)p.r(A)p.r(C)p.r(U)p.r(U)p.m(U)p.r(G)p.r(G)p.r(G)p.r(G)p.r(A)p.r(A)p.r(G)p.r(G)p.r(G)p.r(A)p.r(G)p.r(T)p.r(T)}|RNA2{r(C)p.r(U)p.r(C)p.r(C)p.r(C)p.r(U)p.r(U)p.r(C)p.r(C)p.r(C)p.m(C)p.r(A)p.r(A)p.r(A)p.r(G)p.r(U)p.r(U)p.m(U)p.r(A)p.r(T)p.r(T)}$$$RNA1{StrandType:ss}|RNA2{StrandType:as}$ — higher, 67%
- RNA1{m(U)p.r(A)p.r(A)p.r(A)p.r(C)p.r(U)p.r(U)p.r(U)p.r(G)p.r(G)p.r(G)p.r(G)p.r(A)p.r(A)p.r(G)p.r(G)p.r(G)p.r(A)p.r(G)p.r(T)p.r(T)}|RNA2{r(C)p.r(U)p.r(C)p.m(C)p.r(C)p.r(U)p.r(U)p.r(C)p.r(C)p.r(C)p.r(C)p.r(A)p.r(A)p.r(A)p.r(G)p.r(U)p.r(U)p.r(U)p.r(A)p.r(T)p.r(T)}$$$RNA1{StrandType:ss}|RNA2{StrandType:as}$ — higher, 72%
- RNA1{m(U)p.r(A)p.r(A)p.r(A)p.r(G)p.r(C)p.m(U)p.r(G)p.r(G)p.r(A)p.r(A)p.r(A)p.r(G)p.r(G)p.r(G)p.r(A)p.r(C)p.r(G)p.r(G)p.r(T)p.r(T)}|RNA2{r(C)p.r(C)p.r(G)p.r(U)p.r(C)p.r(C)p.r(C)p.r(U)p.r(U)p.r(U)p.r(C)p.m(C)p.r(A)p.r(G)p.r(C)p.r(U)p.r(U)p.m(U)p.r(A)p.r(T)p.r(T)}$$$RNA1{StrandType:ss}|RNA2{StrandType:as}$ — higher, 65%
- RNA1{m(U)p.r(A)p.r(A)p.r(A)p.r(G)p.r(C)p.r(U)p.r(G)p.r(G)p.r(A)p.r(A)p.r(A)p.r(G)p.r(G)p.r(G)p.r(A)p.r(C)p.r(G)p.r(G)p.r(T)p.r(T)}|RNA2{r(C)p.r(C)p.r(G)p.r(U)p.r(C)p.r(C)p.r(C)p.r(U)p.r(U)p.r(U)p.r(C)p.r(C)p.r(A)p.r(G)p.r(C)p.r(U)p.r(U)p.m(U)p.r(A)p.r(T)p.r(T)}$$$RNA1{StrandType:ss}|RNA2{StrandType:as}$ — higher, 67%
- RNA1{m(U)p.r(A)p.r(C)p.r(C)p.r(G)p.r(A)p.r(G)p.r(A)p.r(A)p.m(U)p.r(G)p.r(A)p.r(G)p.r(C)p.r(C)p.m(U)p.r(G)p.r(A)p.r(U)p.r(T)p.r(T)}|RNA2{r(A)p.r(U)p.m(C)p.r(A)p.r(G)p.r(G)p.r(C)p.r(U)p.m(C)p.r(A)p.r(U)p.r(U)p.r(C)p.r(U)p.r(C)p.r(G)p.r(G)p.m(U)p.r(A)p.r(T)p.r(T)}$$$RNA1{StrandType:ss}|RNA2{StrandType:as}$ — higher, 54%
